Key:
[1] = molecular target: T1, Aurora A (Homo sapiens, UniProt O14965); assay: IC50 determination for inhibitors of Aurora A (96 MTP-ELISA); type: biochemical; details: His4-tagged full-length Aurora A 250 ng/ml, PKB-GSK2 200 nM, ATP 4 μM, 90 min at room temperature, read-out: IC50 Aurora A kinase inhibition
T1 construct: C-terminally Histidine4 (His4)-tagged Aurora A full-length protein
T1 sequence (O14965 1-403): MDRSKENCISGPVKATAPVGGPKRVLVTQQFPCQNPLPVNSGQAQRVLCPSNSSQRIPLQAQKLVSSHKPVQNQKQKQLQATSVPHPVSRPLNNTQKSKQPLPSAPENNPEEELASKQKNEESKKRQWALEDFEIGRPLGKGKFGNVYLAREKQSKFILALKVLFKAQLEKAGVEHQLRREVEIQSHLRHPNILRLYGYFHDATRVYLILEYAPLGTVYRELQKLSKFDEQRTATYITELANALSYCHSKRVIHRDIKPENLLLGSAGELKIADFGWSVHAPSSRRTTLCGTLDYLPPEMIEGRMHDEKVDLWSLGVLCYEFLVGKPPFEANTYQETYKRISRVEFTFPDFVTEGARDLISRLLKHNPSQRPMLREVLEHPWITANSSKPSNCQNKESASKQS

[2] = test system: HCT 116 cells; assay: CellTiter-Glo assay in HCT 116 cells; type: cell-based, human; details: Homo sapiens, HCT-116, 120 h, 5 days incubation, 30 μM to 0.0015 μM
How it was run: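 Cells seeded at 1000/well in RPMI 1640 with 5% FCS, grown 24 h at 37 °C, then treated with 10 concentrations from 30 μM to 0.0015 μM (1:3 dilutions). After 5 days viability was read as ATP-based luminescence (CellTiter-Glo) following 30 min room-temperature equilibration and lysis.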

| IC50 [1] [nM] | IC50 [2] [µM] | Compound |
| --- | --- | --- |
| 1 to 100 | 0.1 to 10 | Cc1cc(Nc2nn(C(C)C)c(=O)c3cc(N4CCOCC4)ccc23)n[nH]1 [Example F-1, 2-Isopropyl-4-(5-methyl-1H-pyrazol-3-ylamino)-7-morpholino-2H-phthalazin-1-one] |
| 1 to 100 | 0.1 to 10 | Cc1cc(Nc2nn(-c3ccccc3Cl)c(=O)c3ccccc23)n[nH]1 [Example R-4, 2-(2-Chloro-phenyl)-4-(5-methyl-1H-pyrazol-3-ylamino)-2H-phthalazin-1-one] |
| 1 to 100 | 0.1 to 10 | Cc1cc(Nc2nn(-c3cccc(C(F)(F)F)c3)c(=O)c3ccccc23)n[nH]1 [Example R-1, 4-(5-Methyl-1H-pyrazol-3-ylamino)-2-(3-trifluoromethyl-phenyl)-2H-phthalazin-1-one] |
| 100 to 1000 | 10 to 100 | COCCn1nc(Nc2cc(C)n[nH]2)c2ccccc2c1=O [Example O-1, 2-(2-Methoxyethyl)-4-(5-methyl-2H-pyrazol-3-ylamino)-2H-phthalazin-1-one] |
| 1 to 100 | 0.1 to 10 | Cc1cc(Nc2nn(C(C)C)c(=O)c3cc(OCc4ccncc4)ccc23)n[nH]1 [Example G-4, 2-Isopropyl-4-(5-methyl-1H-pyrazol-3-ylamino)-7-(pyridin-4-ylmethoxy)-2H-phthalazin-1-one] |
| 1 to 100 | 0.1 to 10 | CNC(=O)Nc1ccc2c(Nc3cc(C)[nH]n3)nn(C(C)C)c(=O)c2c1 [Example I-13, 1-[3-Isopropyl-1-(5-methyl-1H-pyrazol-3-ylamino)-4-oxo-3,4-dihydro-phthalazin-6-yl]-3-methyl-urea] |
| 1 to 100 | 0.1 to 10 | COCc1ccc2c(Nc3cc(C)[nH]n3)nn(C(C)C)c(=O)c2c1 [Example K-1, 2-Isopropyl-7-methoxymethyl-4-(5-methyl-1H-pyrazol-3-ylamino)-2H-phthalazin-1-one] |
| 1 to 100 | 0.1 to 10 | Cc1cc(Nc2nn(-c3ccc(Nc4ccccc4)cc3)c(=O)c3ccccc23)n[nH]1 [Example U-1, 4-(5-Methyl-1H-pyrazol-3-ylamino)-2-(4-phenylamino-phenyl)-2H-phthalazin-1-one] |
| 100 to 1000 | 10 to 100 | Cc1cc(Nc2nn(CC(=O)c3ccc(OC(F)(F)F)cc3)c(=O)c3ccccc23)n[nH]1 [Example E-6, 4-(5-Methyl-1H-pyrazol-3-ylamino)-2-[2-oxo-2-(4-trifluoromethoxy-phenyl)-ethyl]-2H-phthalazin-1-one] |
| 1 to 100 | 0.78 | Cc1cccc(-n2nc(Nc3cc(C)[nH]n3)c3ccccc3c2=O)c1 [Example B-2, 4-(5-Methyl-1H-pyrazol-3-ylamino)-2-m-tolyl-2H-phthalazin-1-one] |
| 1 to 100 | 10 to 100 | CCC(C)c1ccc(-n2nc(Nc3cc(C)n[nH]3)c3ccccc3c2=O)cc1 (stereo not drawn) [Example P-2, 2-(4-sec-Butyl-phenyl)-4-(5-methyl-2H-pyrazol-3-ylamino)-2H-phthalazin-1-one] |
| 1 to 100 | 0.1 to 10 | Cc1cc(Nc2nn(-c3ccc(N4CCOCC4)cc3)c(=O)c3ccccc23)n[nH]1 [Example U-2, 4-(5-Methyl-1H-pyrazol-3-ylamino)-2-(4-morpholin-4-yl-phenyl)-2H-phthalazin-1-one] |
